Measurements published in patent US4356119A, “Therapeutically active polypeptides or acid addition salts and a process for producing such compounds” (Nordisk Insulinlaboratorium, priority 1978, dated 1982).
Where a SMILES comes first, the peptide text is derived from it.

Assays:
Langerhan's islets = assay: glucose stimulated insulin secretion from isolated Langerhan's islets; assay type: cell-based; details: 10 mM glucose, hydrochlorides
Method: In vitro determination of the effect of the peptides on the glucose stimulated insulin secretion was carried out on Langerhan's islets isolated by collagenase technique and preincubated 24 hours at 37° C. Secretion tests were conducted with 10 mM of glucose and three peptide concentrations.
All peptides have been tested in the form of their hydrochlorides together with 10 mM of glucose, and the values are calculated as a percentage of the effect of 10 mM of glucose alone.

fat cells = assay: insulin potentiating effect on glucose metabolism in isolated fat cells; assay type: cell-based; details: 50 ng/ml insulin + 0 μg/ml peptide = 100%
Text: In vitro determination of the insulin potentiating effect of the peptides on the metabolism of glucose has given the following results, the general methods being described elsewhere (3).
All other values are based on this.

[1] = pharmacological dosages; Enk et al. (6); cited from earlier work
[2] = insulin 0 ng/ml, peptide 0.01 μg/ml
[3] = insulin 0 ng/ml, peptide 0.1 μg/ml
[4] = insulin 0 ng/ml, peptide 1 μg/ml
[5] = insulin 0 ng/ml, peptide 10 μg/ml
[6] = insulin 0 ng/ml, peptide 100 μg/ml
[7] = insulin 0.6 ng/ml, peptide 0.01 μg/ml
[8] = insulin 0.6 ng/ml, peptide 0.1 μg/ml
[9] = insulin 0.6 ng/ml, peptide 1 μg/ml
[10] = insulin 0.6 ng/ml, peptide 10 μg/ml
[11] = insulin 0.6 ng/ml, peptide 100 μg/ml
[12] = insulin 50 ng/ml, peptide 0.01 μg/ml
[13] = insulin 50 ng/ml, peptide 0.1 μg/ml
[14] = insulin 50 ng/ml, peptide 1 μg/ml
[15] = insulin 50 ng/ml, peptide 10 μg/ml
[16] = insulin 50 ng/ml, peptide 100 μg/ml

Compound	glucose stimulated insulin secretion, percentage of the effect of 10 mM of glucose alone (Langerhan's islets)	glucose stimulated insulin secretion, percentage of the effect of 10 mM of glucose alone (Langerhan's islets; peptide 5 mmolar)	glucose stimulated insulin secretion, percentage of the effect of 10 mM of glucose alone (Langerhan's islets; peptide 5 × 10^-2 mmolar)	glucose metabolism in fat cells (fat cells; [2])	glucose metabolism in fat cells (fat cells; [3])	glucose metabolism in fat cells (fat cells; [4])	glucose metabolism in fat cells (fat cells; [5])	glucose metabolism in fat cells (fat cells; [6])	glucose metabolism in fat cells (fat cells; [7])	glucose metabolism in fat cells (fat cells; [8])	glucose metabolism in fat cells (fat cells; [9])	glucose metabolism in fat cells (fat cells; [10])	glucose metabolism in fat cells (fat cells; [11])	glucose metabolism in fat cells (fat cells; [12])	glucose metabolism in fat cells (fat cells; [13])	glucose metabolism in fat cells (fat cells; [14])	glucose metabolism in fat cells (fat cells; [15])	glucose metabolism in fat cells (fat cells; [16])	blood sugar level [1]	secretion of insulin [1]
glu-leu-ser-arg-leu-arg-OMe, 3HCl [compound 2]	73%	113%	66%	20%	20%	21%	20%	15%	83%	88%	86%	85%	55%	114%	112%	108%	112%	70%	–	–
COC(=O)[C@H](CCCNC(=N)N)NC(=O)CNC(=O)CNC(=O)CNC(=O)[C@@H](N)CCC(=O)O [compound 6, glugly-gly-gly-arg-OMe, 2HCl] (H-EGGGR-OMe)	–	–	–	–	–	–	–	10%	–	–	–	–	89%	–	–	–	–	121%	–	–
glu-leu-ser-arg-OMe, 2HCl [compound 1]	59%	51%	76%	22%	22%	22%	22%	22%	94%	90%	88%	91%	108%	118%	113%	112%	113%	126%	–	–
glu-leu-ser-arg-leu-arg-asp-ser-ala-arg-OMe, 4HCl [compound 4]	41%	9%	96%	–	–	–	–	–	–	–	–	–	–	–	–	–	–	–	–	–
COC(=O)[C@H](CCCNC(=N)N)NC(=O)[C@H](C)NC(=O)[C@H](CO)NC(=O)[C@@H](N)CC(=O)O [compound 3, asp-ser-ala-arg-OMe, 2HCl] (H-DSAR-OMe)	–	–	–	8%	8%	8%	8%	16%	90%	85%	80%	80%	100%	114%	112%	108%	108%	124%	–	–
secretin	–	–	–	–	–	–	–	–	–	–	–	–	–	–	–	–	–	–	without affecting the blood sugar level	potentiate secretion of insulin
